One experiment addresses T1, HDAC-6 (Homo sapiens, UniProt Q9UBN7).
T1 sequence (Q9UBN7 1-1215): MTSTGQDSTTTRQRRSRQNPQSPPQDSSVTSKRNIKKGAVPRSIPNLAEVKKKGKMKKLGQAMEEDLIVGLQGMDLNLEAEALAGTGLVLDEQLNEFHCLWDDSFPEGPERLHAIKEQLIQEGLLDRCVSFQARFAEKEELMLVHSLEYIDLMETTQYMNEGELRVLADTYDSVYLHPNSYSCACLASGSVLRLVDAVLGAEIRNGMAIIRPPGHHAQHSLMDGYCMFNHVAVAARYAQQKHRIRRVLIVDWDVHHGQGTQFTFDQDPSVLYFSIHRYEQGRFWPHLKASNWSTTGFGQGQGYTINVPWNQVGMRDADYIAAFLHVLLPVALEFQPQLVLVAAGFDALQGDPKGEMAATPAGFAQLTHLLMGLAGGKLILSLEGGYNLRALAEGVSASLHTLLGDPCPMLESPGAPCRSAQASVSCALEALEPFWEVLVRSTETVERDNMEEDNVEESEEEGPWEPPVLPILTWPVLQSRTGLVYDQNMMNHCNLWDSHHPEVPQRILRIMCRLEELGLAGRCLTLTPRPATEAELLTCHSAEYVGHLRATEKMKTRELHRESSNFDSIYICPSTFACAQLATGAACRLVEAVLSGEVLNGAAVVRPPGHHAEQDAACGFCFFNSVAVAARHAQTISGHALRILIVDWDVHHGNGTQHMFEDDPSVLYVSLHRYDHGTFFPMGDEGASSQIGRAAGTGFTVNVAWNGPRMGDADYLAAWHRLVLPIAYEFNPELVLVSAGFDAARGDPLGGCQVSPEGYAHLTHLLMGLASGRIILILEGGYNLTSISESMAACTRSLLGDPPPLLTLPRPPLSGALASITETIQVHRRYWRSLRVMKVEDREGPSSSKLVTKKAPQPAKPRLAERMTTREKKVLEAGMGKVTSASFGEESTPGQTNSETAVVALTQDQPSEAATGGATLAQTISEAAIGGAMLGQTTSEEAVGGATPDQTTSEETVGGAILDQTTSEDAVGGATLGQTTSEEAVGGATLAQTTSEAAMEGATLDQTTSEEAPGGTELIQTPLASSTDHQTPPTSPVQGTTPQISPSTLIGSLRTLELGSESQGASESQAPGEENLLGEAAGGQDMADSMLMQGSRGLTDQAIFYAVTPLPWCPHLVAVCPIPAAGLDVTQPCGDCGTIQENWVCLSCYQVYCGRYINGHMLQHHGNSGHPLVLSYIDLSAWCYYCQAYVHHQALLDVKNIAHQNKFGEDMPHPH
The experiment in a line: in vitro HDAC inhibition, HDAC-6. The experiment is classed as biochemical.

A further experiment concerns the target T2, HDAC-10 (Homo sapiens, UniProt Q969S8).
T2 sequence (Q969S8 1-669): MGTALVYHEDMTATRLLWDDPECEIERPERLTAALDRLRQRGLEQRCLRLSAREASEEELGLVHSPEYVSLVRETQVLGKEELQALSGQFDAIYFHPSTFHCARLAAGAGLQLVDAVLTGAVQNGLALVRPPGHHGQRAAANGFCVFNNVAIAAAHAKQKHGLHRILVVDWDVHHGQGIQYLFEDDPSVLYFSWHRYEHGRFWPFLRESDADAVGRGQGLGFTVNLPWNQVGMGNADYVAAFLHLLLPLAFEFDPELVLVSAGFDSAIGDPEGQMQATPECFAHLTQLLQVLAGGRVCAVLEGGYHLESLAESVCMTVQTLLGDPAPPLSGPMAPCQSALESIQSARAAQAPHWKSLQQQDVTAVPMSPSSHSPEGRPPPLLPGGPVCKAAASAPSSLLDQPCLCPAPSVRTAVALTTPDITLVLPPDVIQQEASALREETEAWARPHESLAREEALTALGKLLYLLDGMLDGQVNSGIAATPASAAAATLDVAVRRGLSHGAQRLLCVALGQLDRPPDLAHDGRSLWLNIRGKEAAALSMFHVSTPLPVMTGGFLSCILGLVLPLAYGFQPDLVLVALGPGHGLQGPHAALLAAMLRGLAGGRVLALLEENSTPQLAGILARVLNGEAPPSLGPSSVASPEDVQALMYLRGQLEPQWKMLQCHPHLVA
Kind of experiment: in vitro HDAC inhibition, HDAC-10. The experiment is classed as biochemical.

The target in a further experiment is HDAC-3 (Homo sapiens, UniProt O15379). Kind of experiment: in vitro HDAC inhibition, HDAC-3. In kind it is biochemical.
In the next experiment the target is HDAC-1 (Homo sapiens, UniProt Q13547). Kind of experiment: in vitro HDAC inhibition, HDAC-1. The experiment is classed as biochemical.
The target of another experiment is HDAC-2 (Homo sapiens, UniProt Q92769). Kind of experiment: in vitro HDAC inhibition, HDAC-2. In kind it is biochemical.
The next experiment has as its target T3, HDAC-8 (Homo sapiens, UniProt Q9BY41).
T3 sequence (Q9BY41 1-377): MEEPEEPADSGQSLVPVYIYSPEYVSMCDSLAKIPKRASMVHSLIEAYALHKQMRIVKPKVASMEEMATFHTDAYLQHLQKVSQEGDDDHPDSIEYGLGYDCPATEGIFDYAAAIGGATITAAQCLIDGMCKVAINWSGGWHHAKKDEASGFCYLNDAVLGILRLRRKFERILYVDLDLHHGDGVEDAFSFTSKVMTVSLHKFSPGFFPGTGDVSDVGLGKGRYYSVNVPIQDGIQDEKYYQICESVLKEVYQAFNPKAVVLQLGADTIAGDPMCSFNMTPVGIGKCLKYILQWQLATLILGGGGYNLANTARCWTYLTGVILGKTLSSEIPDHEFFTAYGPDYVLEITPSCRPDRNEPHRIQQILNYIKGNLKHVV
Kind of experiment: in vitro HDAC inhibition, HDAC-8. In kind it is biochemical.

For experiment [1], the system named is Jurkat cells. Kind of experiment: modulation of Compound 23-induced apoptosis in Jurkat cells. As to conditions: compound 23 10 μM.
Experiment [2] has as its system Jurkat cells. The experiment in a line: ratiometric fluorescence calcium imaging, Jurkat cells. In kind it is cell-based, human. The conditions noted are these: for effect on compound 23-stimulated increase in intracellular Ca2+ levels: FIG. 11; for intracellular calcium mobilization / time to rise in intracellular calcium: 10 μM, FIG. 10; for dose dependence of calcium mobilization: FIGS. 12 and 13. For orientation: Calcium flux is commonly read through the fluorescence of an indicator in the cells.

The subject of experiment [3] is Ramos cells. Kind of experiment: ratiometric fluorescence calcium imaging, Ramos cells. In kind it is cell-based. As to conditions: FIG. 15.
The test system of experiment [4] is PLC-γ1-deficient Jurkat J.γ1 cells. The experiment in a line: ratiometric fluorescence calcium imaging, J.γ1 cells. The experiment is classed as cell-based, human. The conditions noted are these: FIG. 14.
In experiment [5] the test system is J.g1 (Phospholipase C-g1 deficient Jurkat). Kind of experiment: Apoptosis in J.g1 cells.
Experiment [6] deals with P116 (ZAP-70 deficient Jurkat). Kind of experiment: Apoptosis in P116 cells.
Experiment [7] relates to PLC-deficient J.γ1 Jurkat cells. The experiment in a line: cytochrome C translocation from mitochondria to cytosol, J.γ1 Jurkat. As to conditions: HDAC inhibitors 12 or 24 hours, FIG. 9.
In experiment [8] the test system is Ramos cells. Kind of experiment: apoptosis in Ramos cells. The experiment is classed as cell-based.
Another experiment relates to Jurkat WT. Kind of experiment: Apoptosis in Jurkat WT cells.
For experiment [9], the system named is J.RT3-T.5 (TCR-b chain deficient Jurkat). Kind of experiment: Apoptosis in J.RT3-T.5 cells.
In another experiment the test system is wild type Jurkat cells. Kind of experiment: cytochrome C translocation from mitochondria to cytosol, wild type Jurkat. As to conditions: HDAC inhibitors 12 or 24 hours, FIG. 9.

Results on 8 molecules are retold here after US7820711B2, “Uses of selective inhibitors of HDAC8 for treatment of T-cell proliferative disorders” (Pharmacyclics Inc., priority 2006, dated 2010).

HDAC-3, sequence (O15379 whole entry): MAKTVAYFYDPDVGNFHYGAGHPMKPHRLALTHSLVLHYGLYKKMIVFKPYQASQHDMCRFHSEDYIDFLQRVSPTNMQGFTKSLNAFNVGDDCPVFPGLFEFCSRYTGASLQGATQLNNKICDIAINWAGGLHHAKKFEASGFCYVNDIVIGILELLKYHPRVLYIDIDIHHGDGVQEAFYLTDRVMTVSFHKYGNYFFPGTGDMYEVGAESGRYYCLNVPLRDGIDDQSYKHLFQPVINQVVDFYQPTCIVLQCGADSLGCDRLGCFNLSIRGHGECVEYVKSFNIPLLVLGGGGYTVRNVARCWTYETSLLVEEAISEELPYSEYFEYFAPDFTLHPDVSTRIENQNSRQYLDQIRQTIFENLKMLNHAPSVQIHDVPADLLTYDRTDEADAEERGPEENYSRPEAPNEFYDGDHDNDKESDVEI
HDAC-3, sequence (Q9Y618 395-489 partner limits assumed): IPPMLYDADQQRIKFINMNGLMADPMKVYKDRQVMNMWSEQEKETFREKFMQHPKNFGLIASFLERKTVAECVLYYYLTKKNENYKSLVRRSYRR
HDAC-2, sequence (Q92769 whole entry): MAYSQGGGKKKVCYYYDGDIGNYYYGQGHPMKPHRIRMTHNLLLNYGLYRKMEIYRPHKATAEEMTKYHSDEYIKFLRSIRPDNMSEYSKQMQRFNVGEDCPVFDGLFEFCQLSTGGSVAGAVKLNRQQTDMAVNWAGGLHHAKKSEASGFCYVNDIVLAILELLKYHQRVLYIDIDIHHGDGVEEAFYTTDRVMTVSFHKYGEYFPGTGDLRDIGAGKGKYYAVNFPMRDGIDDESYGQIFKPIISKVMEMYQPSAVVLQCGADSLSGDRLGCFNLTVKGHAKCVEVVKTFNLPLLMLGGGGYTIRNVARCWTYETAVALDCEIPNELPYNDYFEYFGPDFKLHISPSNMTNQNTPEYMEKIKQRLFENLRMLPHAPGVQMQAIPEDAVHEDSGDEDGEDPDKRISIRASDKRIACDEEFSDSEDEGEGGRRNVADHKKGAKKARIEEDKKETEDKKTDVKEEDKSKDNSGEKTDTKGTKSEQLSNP
HDAC-1, sequence (Q13547 whole entry): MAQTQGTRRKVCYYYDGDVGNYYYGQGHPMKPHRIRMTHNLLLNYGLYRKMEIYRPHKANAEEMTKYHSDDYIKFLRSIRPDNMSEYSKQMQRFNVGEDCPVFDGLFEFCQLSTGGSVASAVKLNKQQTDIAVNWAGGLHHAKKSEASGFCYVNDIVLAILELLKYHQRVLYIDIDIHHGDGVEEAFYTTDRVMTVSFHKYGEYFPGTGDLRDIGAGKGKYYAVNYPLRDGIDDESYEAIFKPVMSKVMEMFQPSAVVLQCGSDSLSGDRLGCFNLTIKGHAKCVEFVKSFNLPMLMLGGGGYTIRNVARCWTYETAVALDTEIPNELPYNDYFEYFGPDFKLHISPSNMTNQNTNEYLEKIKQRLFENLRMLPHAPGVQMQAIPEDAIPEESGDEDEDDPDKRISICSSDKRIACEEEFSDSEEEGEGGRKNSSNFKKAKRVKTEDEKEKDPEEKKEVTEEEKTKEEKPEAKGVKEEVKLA

In the case of `Cn1cc(Cc2ccc(F)cc2)c2cc(C(=O)NO)ccc21` [Compound 33, 1-methyl-3-(4-fluoro-phenylmethyl)-1H-indole-5-carboxylic acid hydroxyamide], the IC50 (commonly the point on the concentration scale where inhibition reaches its midpoint) on HDAC-6 stood at 0.36 µM; against HDAC-10 it was 5.3 µM; against HDAC-3, 1.5 µM; at HDAC-1 it was 2.6 µM; on HDAC-2, 23 µM; against HDAC-8, 0.024 µM. In addition, at HDAC-8 (vs HDACs 1, 2, 3, 6, 10), the “HDAC8 IC50 fold lower than the next lowest HDAC target IC50” value is recorded as roughly 15 fold.
Turning to `CC(=O)OCOC(=O)CN(CC(=O)OCOC(C)=O)c1ccccc1OCCOc1ccccc1N(CC(=O)OCOC(C)=O)CC(=O)OCOC(C)=O` [BAPTA-AM], the “effect on Compound 23-induced apoptosis” value with Jurkat cells [1] (BAPTA-AM 0.5 μM, FIG. 8(B)) is reported as “diminished apoptosis”.
With `COc1ccc2c(c1)CC[C@@H]1[C@@H]2CC[C@]2(C)[C@@H](NCCCCCCN3C(=O)CCC3=O)CC[C@@H]12` [Compound U-73343], in the experiment with Jurkat cells [1] (FIG. 7), the “effect on Compound 23-induced apoptosis” value is “failed to block”. Moreover, the “effect on compound 23-stimulated increase in intracellular Ca2+ levels” value with Jurkat cells [2] is recorded as “not”.
In the case of `COc1ccc2c(c1)CC[C@@H]1[C@@H]2CC[C@]2(C)[C@@H](NCCCCCCN3C(=O)C=CC3=O)CC[C@@H]12` [Compound U-73122], in the experiment on Jurkat cells [1] (FIG. 7), the “effect on Compound 23-induced apoptosis” value is reported as “inhibited Compound 23-induced apoptosis in a dose-dependent manner”. For the same molecule, in the experiment with Jurkat cells [2], the “effect on compound 23-stimulated increase in intracellular Ca2+ levels” value is “strongly inhibited”.
As to `CN(C)Cc1c(C(=O)NCCOc2ccc(C(=O)NO)cc2)oc2ccccc12` [CRA-024781], in the experiment on Jurkat cells [2], the intracellular calcium mobilization entry was “sustained rise in intracellular calcium”, the “time to rise in intracellular calcium” value was “approximately 1 minute” and the “dose dependence of calcium mobilization” value is listed as “dose dependent”. The intracellular calcium levels entry in the experiment with Ramos cells [3] is on record as “robust increase”. In [4], the “effect on intracellular Ca2+” value is given as “completely abolished”.
As for `C/C=C(/C)C(=O)O[C@H]1C(C)=C2[C@H]([C@@H]1OC(=O)CCCCCCC)[C@@](C)(OC(C)=O)C[C@H](OC(=O)CCC)[C@@]1(O)[C@H]2OC(=O)[C@@]1(C)O` [thapsigargin], the “effect on Compound 23-induced apoptosis” value in the experiment on Jurkat cells [1] (thapsigargin 0.2 μM, FIG. 8(A)) was “enhanced apoptosis”.
Consider `COc1ccc(Cn2ccc3ccc(C(=O)NO)cc32)cc1` [Compound 23, 1-(4-methoxy-phenylmethyl)-1H-indole-6-carboxylic acid hydroxyamide], for which the intracellular calcium mobilization result in the experiment on Jurkat cells [2] is reported as “sustained rise in intracellular calcium”. Also, the “time to rise in intracellular calcium” value in the experiment on Jurkat cells [2] is “approximately 1 minute”. The “dose dependence of calcium mobilization” value in the experiment with Jurkat cells [2] is “dose dependent”. In addition, the intracellular calcium levels result with Ramos cells [3] is on record as “did not alter resting calcium levels”. In addition, the “Apoptosis at 5 μM” value in experiment [5] stood at 12%; in experiment [6], 82%; with Jurkat WT, 43%; in [9] it was 67%. For the same molecule, the results for the “cytochrome C translocation from mitochondria to cytosol” value (in [7]; with wild type Jurkat cells) were “failed to alter the localization” and “induced translocation”, respectively. Besides, the induction of apoptosis result in the experiment with Ramos cells [8] is given as “failure to induce apoptosis”. Moreover, the “effect on intracellular Ca2+” value in [4] is “completely abolished”.

B1: FasL: a pro-apoptotic protein (protein, UniProt P48023 130-281, looked up)
Tumor necrosis factor ligand …: QIGHPSPPPEKKELRKVAHLTGKSNSRSMPLEWEDTYGIVLLSGVKYKKGGLVINETGLYFVYSKVYFRGQSCNNLPLSHKVYMRNSKYPQDLVMMEGKMMSYCTTGQMWARSSYLGAVFNLTSADHLYVNVSELSLVNFEESQTFFGLYKL
On to B1, for which the “cytochrome C translocation from mitochondria to cytosol” value (in [7]; in the experiment with wild type Jurkat cells) was “effectively induced translocation” in each case.
